# PMC6950057, “Toxicity, Pharmacokinetics, and Gut Microbiome of Oral Administration of Sesterterpene MHO7 Derived from a Marine Fungus” (Marine Drugs, 2019)
# Test system: gut microbiota
# Test: Gut (cecal) microbiota analysis by 16S rRNA sequencing
# Type: in vivo, mice
# Procedure: Fresh cecal samples from 24 (n = 6 per group) mice were collected at 1, 8 and 30 h after oral administration of 500 mg·kg^−1 MHO7 meanwhile control group was collected at 8 h after oral the same volume corn oil, respectively. All of the cecal samples were collected in sterile environments and containers, snap-frozen in liquid nitrogen, and then stored at −80 °C.
# Microbial DNA was extracted from 24 cecal samples using the E.Z.N.A.® soil DNA Kit (Omega Bio-tek, Norcross, GA, USA) according to manufacturer’s protocols. The final DNA concentration and purification were determined by NanoDrop 2000 UV-vis spectrophotometer (Thermo Scientific, Wilmington, DE, USA), and DNA quality was checked by 1% agarose gel electrophoresis. The V3-V4 hypervariable regions of the bacteria 16S rRNA gene were amplified with primers 338F (5’- […]-3’) and 806R (5’-[…]-3’) by thermocycler PCR system (GeneAmp 9700, ABI, Foster City, CA, USA). The PCR reactions were conducted using the following program: 3 min of denaturation at 95 °C; 27 cycles of 30 s at 95 °C, 30 s for annealing at 55 °C, and 45 s for elongation at 72 °C; and a final extension at 72 °C for 10 min. PCR reactions were performed in triplicate 20 μL mixture containing 4 μL of 5 × FastPfu Buffer, 2 μL of 2.5 mM·L^−1 dNTPs, 0.8 μL of each primer (5 μM·L^−1), 0.4 μL of FastPfu Polymerase, and 10 ng of template DNA. The resulted PCR products were extracted from a 2% agarose gel and further purified using the AxyPrep DNA Gel Extraction Kit (Axygen Biosciences, Union City, CA, USA) and quantified using QuantiFluor ™ -ST (Promega, Madison, […], USA) according to the manufacturer’s protocol.
# Purified amplicons were pooled in equimolar and paired-end sequenced (2 × 300) on an Illumina MiSeq platform (Illumina, San Diego, CA, USA) according to the standard protocols by Majorbio Bio-Pharm Technology Co. Ltd. (Shanghai, China).
# Raw fastq files were quality-filtered by Trimmomatic and merged by FLASH according to the following criteria: (i) The reads were truncated at any site receiving an average quality score < 20 over a 50 bp sliding window. (ii) Sequences whose overlap was longer than 10 bp were merged according to their overlap with mismatch no more than 2 bp. (iii) Sequences of each sample were separated according to barcodes (exactly matching) and Primers (allowing 2 nucleotide mismatching), and reads containing ambiguous bases were removed. Operational taxonomic units (OTUs) were clustered using UPARSE (version 7.1, http://drive5.com/uparse/) at a 97% similarity level with a novel “greedy” algorithm that performs chimera filtering and OTU clustering simultaneously. The taxonomy of each 16S rRNA gene sequence was analyzed by RDP Classifier algorithm (http://rdp.cme.msu.edu/) against the Silva (SSU123) 16S rRNA database using confidence threshold of 70%.
# [1] = MHO7-8h group, cecal, oral 500 mg·kg^−1
# [2] = MHO7-30h group, cecal, oral 500 mg·kg^−1
compound,measurement,setting,value
"CC(C)=C/C=C/[C@H](C)[C@H]1CC[C@]2(C)C[C@@H]3C(C)=CC(=O)[C@H]3/C(C=O)=C\C[C@@H]12 [MHO7, 6-epi-ophiobolin G]","Relative abundance, genus Ruminococcaceae_UCG-009",[1],0.063±0.072%
same,"Relative abundance, genus Ruminococcaceae_UCG-010",[1],0.036±0.042%
same,"Relative abundance, genus Ruminococcaceae_UCG-014",[1],0.19±0.25%
same,"Relative abundance, genus Ruminococcus_1",[1],0.38±0.32%
same,"Relative abundance, genus Staphylococcus",[1],0.066±0.060%
same,"Relative abundance, genus Streptococcus",[1],0.029±0.016%
same,"Relative abundance, genus Sutterella",[1],0.0069±0.010%
same,"Relative abundance, genus [Eubacterium]_coprostanoligenes_group",[1],0.22±0.23%
same,"Relative abundance, genus [Eubacterium]_ventriosum_group",[1],0.012±0.020%
same,"Relative abundance, genus g__norank_f__Bacteroidales_S24-7_group",[1],33.65±5.47%
same,"Relative abundance, genus g__norank_f__Christensenellaceae",[1],0.011±0.0079%
same,"Relative abundance, genus g__norank_f__Lachnospiraceae",[1],7.54±4.66%
same,"Relative abundance, genus g__norank_f__Ruminococcaceae",[1],0.31±0.26%
same,"Relative abundance, genus norank_o__Mollicutes_RF9",[1],0.0075±0.0047%
same,"Relative abundance, order Anaeroplasmatales",[1],0.00028±0.00068%
same,"Relative abundance, order Bacillales",[1],0.071±0.067%
same,"Relative abundance, order Clostridiales",[1],28.89±20.03%
same,"Relative abundance, order Lactobacillales",[1],11.34±12.02%
same,"Relative abundance, order Mollicutes_RF9",[1],0.0057±0.0040%
same,"Relative abundance, order Verrucomicrobiales",[1],0.78±1.15%
same,"Relative abundance, phylum Deferribacteres",[1],0.0044±0.0050%
same,"Relative abundance, phylum Proteobacteria",[1],2.05±1.47%
same,"Relative abundance, phylum Saccharibacteria",[1],0.35±0.61%
same,"Relative abundance, phylum Tenericutes",[1],0.0075±0.0047%
same,amount of OTUs vs control,"MHO7-30 h group, p < 0.001",remarkable reduction
same,gut community richness (Sobs index) vs control,"MHO7-30 h group, p < 0.01",remarkable reduction
same,"Relative abundance, class Bacilli",[2],3.25±3.05%
same,"Relative abundance, class Clostridia",[2],47.82 ± 20.66%
same,"Relative abundance, class Mollicutes",[2],0.0012±0.0031%
same,"Relative abundance, class Verrucomicrobiae",[2],2.51±3.67%
same,"Relative abundance, family Bacteroidales_S24-7_group",[2],19.34±6.97%
same,"Relative abundance, family Lachnospiraceae",[2],42.58±19.32%
same,"Relative abundance, family Lactobacillaceae",[2],3.21±2.99%
same,"Relative abundance, family Rikenellaceae",[2],3.19±2.16%
same,"Relative abundance, family Ruminococcaceae",[2],4.13±1.97%
same,"Relative abundance, family Verrucomicrobiaceae",[2],2.51±3.67%
same,"Relative abundance, genus Coprococcus_1",[2],0.11±0.068%
same,"Relative abundance, genus Family_XIII_AD3011_group",[2],0.021±0.014%
same,"Relative abundance, genus Lachnoclostridium",[2],2.42±2.02%
same,"Relative abundance, genus Lactobacillus",[2],3.21±2.99%
same,"Relative abundance, genus Papillibacter",[2],0.00062±0.0015%
same,"Relative abundance, genus Peptococcus",[2],0.0050±0.0056%
same,"Relative abundance, genus Prevotellaceae_NK3B31_group",[2],0.14±0.19%
same,"Relative abundance, genus Prevotellaceae_UCG-001",[2],1.07±1.13%
same,"Relative abundance, genus Rikenellaceae_RC9_gut_group",[2],0.042±0.084%
same,"Relative abundance, genus Ruminiclostridium",[2],0.079±0.076%
same,"Relative abundance, genus Ruminiclostridium_5",[2],0.27±0.23%
same,"Relative abundance, genus Ruminiclostridium_9",[2],0.41±0.20%
same,"Relative abundance, genus Ruminococcaceae_NK4A214_group",[2],0.020±0.023%
same,"Relative abundance, genus Ruminococcaceae_UCG-009",[2],0.012±0.015%
same,"Relative abundance, genus Ruminococcaceae_UCG-010",[2],0.0062±0.0061%
same,"Relative abundance, genus Ruminococcaceae_UCG-014",[2],0.022±0.030%
same,"Relative abundance, genus Ruminococcus_1",[2],0.071±0.15%
same,"Relative abundance, genus Streptococcus",[2],0.0025±0.0031%
same,"Relative abundance, genus Sutterella",[2],0.090±0.090%
same,"Relative abundance, genus [Eubacterium]_coprostanoligenes_group",[2],0.28±0.50%
same,"Relative abundance, genus [Eubacterium]_ventriosum_group",[2],0.022±0.041%
same,"Relative abundance, genus g__norank_f__Bacteroidales_S24-7_group",[2],19.34±6.97%
same,"Relative abundance, genus g__norank_f__Christensenellaceae",[2],0.0069±0.0087%
same,"Relative abundance, genus g__norank_f__Lachnospiraceae",[2],19.81±11.07%
same,"Relative abundance, genus g__norank_f__Ruminococcaceae",[2],0.16±0.13%
same,"Relative abundance, genus norank_o__Mollicutes_RF9",[2],0.0012±0.0031%
same,"Relative abundance, order Anaeroplasmatales",[2],0.00000%
same,"Relative abundance, order Bacillales",[2],0.00034±0.00084%
same,"Relative abundance, order Clostridiales",[2],47.86±20.61%
same,"Relative abundance, order Lactobacillales",[2],3.26±3.04%
same,"Relative abundance, order Mollicutes_RF9",[2],0.0014±0.0025%
same,"Relative abundance, order Verrucomicrobiales",[2],2.52±3.65%
same,"Relative abundance, phylum Deferribacteres",[2],0.25±0.23%
same,"Relative abundance, phylum Proteobacteria",[2],1.34±1.58%
same,"Relative abundance, phylum Saccharibacteria",[2],0.0069±0.0055%
same,"Relative abundance, phylum Tenericutes",[2],0.0013±0.0031%
same,abundance of dominant phyla Firmicutes and Bacteroidetes,"at 1, 8 or 30 h after oral administration",no significant differences
